{"source": "patent US20040126418A1", "about": "“Transdermal administration of MENT” (The Population Council, Inc., priority 1997, published 2004)", "key": {"[1]": {"experiment": "Bioavailability of transdermal MENT gel formulations in rabbits (serum MENT by radioimmunoassay)", "assay_type": "in vivo, New Zealand white rabbits", "protocol": "The bioavailability of three transdermal MENT gel formulations (2 mg MENT/g gel) (formulations O, F and T) were studied in rabbits. Three New Zealand white rabbits weighing 3.5-4.5 kg were used in each group. To each animal, 0.2 g gel (0.4 mg MENT) or 0.4 g gel (0.8 mg MENT) was applied to 5×5 cm or 10×10 cm area of shaved skin for three consecutive days. On days 1 and 3, blood samples were collected at 0, 1, 2, 4 and 8 hours after application of the gel. Serum MENT levels were determined by radioimmunoassay."}, "[2]": {"experiment": "In vitro permeation (flux) across rat skin, modified Franz diffusion cell", "assay_type": "in vitro ADME, Sprague-Dawley rats", "source_text": "The flux of a specific formulation can be determined using a modified Franz diffusion cell as discussed herein. First, skin from female Sprague-Dawley rats (200-250 g body weight) can be obtained. The rats are anesthetized, the abdominal skin shaved and then excised. Excess fat and connective tissues are removed. The skin (1.77 cm^2) is sandwiched between the two chambers of a modified Franz diffusion cell, with the surface of the skin facing the upper (donor) chamber of the cell. A measured amount of the androgen containing formulation is applied to the surface of the skin, so that the skin is completely covered. The lower (recipient) chamber is filled with sterile saline, which completely bathes the lower surface of the rat skin. The contents of the recipient chamber are constantly stirred with a magnetic stirrer. Aliquots of the saline in the recipient chamber is removed at predetermined intervals and analyzed by HPLC. The saline remains in constant contact with the skin at all times. The Franz cell is maintained at 37° C. for the duration of each test.\nAn in vitro modified Franz cell system as described in Example 2 was used to study the permeability of testosterone and MENT from various transdermal dosage forms through rat skin. Various topical cream, gel and patch formulations were tested. The concentration of testosterone and MENT in all of the gels and creams described herein was 2 mg per gram of gel or cream. The following formulations were tested: […]\nThe gel (nearly identical to formulation T from Example 1) was produced by taking all of the aqueous components and mixing them under medium agitation in one vessel and all the organic, non-aqueous materials and mixing them in a separate vessel. The organic mixture and aqueous mixture were then mixed together using medium agitation provided by a paddle mixer. Of course, a lightning mixer or magnetic stirrer could also be used. The viscosity profile of the gel produced is illustrated in FIG. 20. Steroid permeation (in vitro) across Rat Skin for each of these gel formulations were tested using a two chambers of a modified Franz diffusion cell as previously described. Skin from female Sprague-Dawley rats (200-250 g body weight) were used in these studies. The rats were anesthetized, the abdominal skin was shaved and excised. Excess fat and connective tissues were removed. The skin (1.77 cm^2) was sandwiched between the two chambers of a modified Franz diffusion cell, with the surface of the skin facing the upper (donor) chamber of the cell. Approximately 0.5 gm of gel (1 mg steroid) was applied to the surface of the skin, so that the skin was completely covered with the gel. The lower (recipient) chamber was filled with 11.4 ml of sterile saline, which completely bathed the lower surface of the rat skin. The contents of the recipient chamber was constantly stirred with a magnetic stirrer during the experiment. Aliquots of 200 μL of the saline in the recipient chamber were removed at intervals of 1 h for 4 h; and analyzed by HPLC for either MENT on T. The saline remained in constant contact with the skin at all times. The Franz cell was maintained at 37° C. for the duration of the test."}}}
{"compound": "C[C@@H]1CC2=CC(=O)CC[C@@H]2[C@H]2CC[C@]3(C)[C@@H](O)CC[C@H]3[C@@H]21", "note": "[MENT, 7α-methyl-19-nortestosterone]", "values": [{"measurement": "Dose dependence of bioavailability", "setting": "[1]; 0.4 vs 0.8 mg MENT, Table 1", "result": "dose dependent"}, {"measurement": "Permeation through rabbit skin / serum levels", "setting": "[1]; gel formulations O, F and T, FIGS. 14 to 19", "result": "permeated through rabbit skin and give measurable serum levels"}, {"measurement": "Permeation (concentrations and flux rates) through rat skin compared with testosterone", "setting": "[2]; all other formulations (1 patch, 2 creams and 7 gels), FIGS. 3 to 7 and 9 to 13", "result": "considerably higher concentrations and flux rates than that of testosterone"}, {"measurement": "Flux across rat skin compared with testosterone", "setting": "[2]; certain dosage forms (FIGS. 3, 4, 6, 7, 10, 11 and 12)", "result": "more than double that of testosterone"}, {"measurement": "Rate of skin penetration compared with T", "setting": "[2]; gel of Example 2, 0.5 gm gel (1 mg steroid), 1-4 h, FIG. 1", "result": "faster rate than T"}, {"measurement": "Steroid flux compared with T", "setting": "[2]; gel of Example 2, each time period studied, FIG. 2", "result": "greater at each time period studied"}, {"measurement": "Flux compared with MENT Ac", "setting": "[2]; general statement, no data shown", "result": "generally greater than that of MENT Ac"}, {"measurement": "Flux compared with testosterone", "setting": "[2]; summary statement, depending upon the particular transdermal formulation", "result": "as much as twice that of testosterone or more"}]}
